Test results as given in US20240016942A1, “STAT DEGRADERS AND USES THEREOF” (Kymera Therapeutics, Inc., priority 2020, published 2024).
Where two headings read alike, the source gives them in different places.

Molecular target: T1, STAT3 (Homo sapiens, UniProt P40763)
T1 construct: expressed in transfected cells; host or cells: A549
Assay: STAT3 HiBiT degradation assay (Nano-Glo HiBiT lytic detection) in transfected A549 cells
Format: cell-based
Procedure: Example 1. HiBiT Assay Protocol
Compound preparation and Cell seeding: The transfected A549 cells were harvested from dish into cell culture medium and cell numbers counted. Cells were diluted with culture medium to the desired density and 30 μL of cell suspension (about 2000 cells/well) were added into each well of a 384-well cell culture plate as designated and transferred into 37° C. 5% CO2 incubator for 24 h. Compounds were dissolved to 10 mM stock solution and 12 μL of the stock solution was transferred to a 384 LDV-plate. 3 fold, 10-point dilution was performed by transferring 4 μL compound into 8 μL DMSO using a TECAN (EVO200) liquid handler. 30 μl of diluted compound from compound source plate was transferred into the cell plate as designated by using Echo550 and transferred into 37° C. 5% CO2 incubator for 24 h.
Detection: Plates were removed from incubators and equilibrated at room temperature for 15 minutes. Nano-Glo Hibit Lytic Detection reagent (Promega Cat #N3040) was thawed and equilibrated to room temperature before the experiment. 30 μL of Nano-Glo Hibit Lytic Detection reagent was added into each well to be detected. The plates were held at room temperature for 10 min followed by reading on EnSpire.
Data analysis: The remaining activity was calculated following the formula: Remaining Activity (%)=100%×(Lumsample−LumNC)/(LumPC−LumNC). Calculate the IC50 by fitting the curve using Xlfit (v5.3.1.3), equation 201: fit=(A+((B−A)/(1+((x/C)^D)))); A: Botton; B: Top; C: IC50; and D: Slope.
The letter codes for STAT3 DC50 include: A (<0.01 μM), B (0.01-0.1 μM), C (0.1-1.0 μM), and D (>1.0 μM).

[1] = 24 h compound incubation, read-out: STAT3 HiBIT A549 degradation 24 h: Average external-Abs DC50

T1 sequence (P40763 whole entry): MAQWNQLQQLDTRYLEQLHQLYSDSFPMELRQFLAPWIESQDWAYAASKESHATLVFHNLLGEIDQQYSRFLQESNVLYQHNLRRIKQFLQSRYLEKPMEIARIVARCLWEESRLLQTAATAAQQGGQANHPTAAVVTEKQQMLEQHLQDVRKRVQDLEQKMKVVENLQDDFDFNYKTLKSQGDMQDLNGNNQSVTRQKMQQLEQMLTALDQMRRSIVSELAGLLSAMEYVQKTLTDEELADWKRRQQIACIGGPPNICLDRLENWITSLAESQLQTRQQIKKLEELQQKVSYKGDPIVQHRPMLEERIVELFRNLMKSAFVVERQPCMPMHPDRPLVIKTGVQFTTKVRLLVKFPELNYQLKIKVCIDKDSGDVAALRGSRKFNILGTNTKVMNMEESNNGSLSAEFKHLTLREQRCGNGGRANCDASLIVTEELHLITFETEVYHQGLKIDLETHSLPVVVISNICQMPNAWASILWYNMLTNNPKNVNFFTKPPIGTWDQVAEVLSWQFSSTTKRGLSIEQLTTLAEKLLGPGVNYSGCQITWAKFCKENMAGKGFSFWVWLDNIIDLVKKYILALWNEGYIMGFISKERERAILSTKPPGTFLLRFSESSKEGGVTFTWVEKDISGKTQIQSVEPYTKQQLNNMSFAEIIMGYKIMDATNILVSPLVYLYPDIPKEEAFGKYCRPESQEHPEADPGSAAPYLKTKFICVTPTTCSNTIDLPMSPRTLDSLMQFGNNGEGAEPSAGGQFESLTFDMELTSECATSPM

Row | SMILES | DC50 [1] | DC50 (read-out: STAT3 HiBIT A549 degradation 24 h: Average external-Abs DC50, 24 h compound incubation)
1 | Cc1cc(CCCC(=O)N[C@H](C(=O)N2C[C@H](O)C[C@H]2C(=O)N[C@@H](C)c2ccc(-c3scnc3C)cc2)C(C)(C)C)c(Cl)c(OC[C@H](CCC(N)=O)NC(=O)[C@@H]2CC[C@@H]3CCCC[C@H](NC(=O)c4cc5cc(C(=O)P(=O)(O)O)ccc5[nH]4)C(=O)N32)c1 [I-5] | < 10 nM | –
2 | CC(=O)N1CC[C@H]2CC[C@@H](C(=O)N[C@@H](CCC(N)=O)COc3cc(C)cc(CCCC(=O)N[C@H](C(=O)N4C[C@H](O)C[C@H]4C(=O)N[C@@H](C)c4ccc(-c5scnc5C)cc4)C(C)(C)C)c3Cl)N2C(=O)[C@@H](NC(=O)c2cc3cc(C(=O)P(=O)(O)O)ccc3[nH]2)C1 [I-80] | < 10 nM | –
3 | Cn1c(=O)n(C2CCC(=O)NC2=O)c2ccc(C[C@H]3CC[C@@H](CC(=O)N4CC[C@H]5CC[C@@H](C(=O)N[C@@H](CCC(N)=O)C(=O)NCc6ccc(S(C)(=O)=O)cc6F)N5C(=O)[C@@H](NC(=O)c5cc6cc(C(=O)P(=O)(O)O)ccc6[nH]5)C4)CC3)cc21 (stereo partly shown) [I-44] | 10 to 100 nM | –
4 | Cc1ncsc1-c1ccc([C@H](C)NC(=O)[C@@H]2C[C@@H](O)CN2C(=O)[C@@H](NC(=O)CCCCc2cccc(OC[C@H](CCC(N)=O)NC(=O)[C@@H]3CC[C@@H]4CCCC[C@H](NC(=O)c5cc6cc(C(=O)P(=O)(O)O)ccc6[nH]5)C(=O)N43)c2F)C(C)(C)C)cc1 [I-3] | < 10 nM | –
5 | CC(C)S(=O)(=O)c1ccc(CNC(=O)[C@H](CCC(N)=O)NC(=O)[C@@H]2CC[C@@H]3CCN(C(=O)C[C@H]4CC[C@@H](Cc5ccc6c(c5)n(C)c(=O)n6C5CCC(=O)NC5=O)CC4)C[C@H](NC(=O)c4cc5cc(C(=O)P(=O)(O)O)ccc5[nH]4)C(=O)N32)cc1 (stereo partly shown) [I-70] | 10 to 100 nM | –
6 | Cc1ncsc1-c1ccc([C@H](C)NC(=O)[C@@H]2C[C@@H](O)CN2C(=O)[C@@H](NC(=O)CC2CCC(c3cccc(OC[C@H](CCC(N)=O)NC(=O)[C@@H]4Cc5cccc6c5N4C(=O)[C@@H](NC(=O)c4cc5cc(C(=O)P(=O)(O)O)ccc5[nH]4)CC6)c3Cl)CC2)C(C)(C)C)cc1 (stereo partly shown) [I-55] | 10 to 100 nM | –
7 | Cc1ncsc1-c1ccc([C@H](C)NC(=O)[C@@H]2C[C@@H](O)CN2C(=O)[C@@H](NC(=O)CCCc2cccc(OC[C@H](CCC(N)=O)NC(=O)[C@@H]3CCCN3C(=O)[C@@H](NC(=O)c3cc4cc(C(=O)P(=O)(O)O)ccc4[nH]3)C(C)C)c2Cl)C(C)(C)C)cc1 [I-15, 2-[[(2S)-1-[(2S)-2-[[(2S)-4-carbamoyl-1-[2-chloro-3-(3-[[(2S)-1-[(2S,4R)-4-hydroxy-2-[[(1S)-1-[4-(4-methyl-1,3-thiazol-5-yl)phenyl]ethyl]carbamoyl]pyrrolidin-1-yl]-3,3-dimethyl-1-oxobutan-2-yl]carbamoyl]propyl)phenoxy]butan-2-yl]carbamoyl]pyrrolidin-1-yl]-3-methyl-1-oxobutan-2-yl]carbamoyl]-1H-indole-5-carbonylphosphonic acid] | 10 to 100 nM | –
8 | CNC(=O)CC[C@@H](C)NC(=O)[C@@H]1Cc2cc(CCCCCCc3ccc4c(c3)n(C)c(=O)n4C3CCC(=O)NC3=O)cc3c2N1C(=O)[C@@H](NC(=O)c1cc2cc(C(=O)P(=O)(O)O)ccc2[nH]1)CC3 (stereo partly shown) [I-22] | > 1000 nM | –
9 | Cn1c(=O)n(C2CCC(=O)NC2=O)c2ccc(CC[C@H]3CC[C@@H](C(=O)N4CC[C@H]5CC[C@@H](C(=O)N[C@@H](CCC(N)=O)C(=O)NCc6ccc(S(C)(=O)=O)cc6)N5C(=O)[C@@H](NC(=O)c5cc6cc(C(=O)P(=O)(O)O)ccc6[nH]5)C4)CC3)cc21 (stereo partly drawn) [I-68, 2-[[(5S,8S,10aR)-8-[[(1S)-3-carbamoyl-1-[[(4-methanesulfonylphenyl)methyl]carbamoyl]propyl]carbamoyl]-6-oxo-3-[(1r,4s)-4-[2-[1-(2,6-dioxopiperidin-3-yl)-3-methyl-2-oxo-1,3-benzodiazol-5-yl]ethyl]cyclohexanecarbonyl]-octahydropyrrolo[1,2-a][1,5]diazocin-5-yl]carbamoyl]-1H-indole-5-carbonylphosphonic acid] | 10 to 100 nM | –
10 | Cc1ncsc1-c1ccc([C@H](C)NC(=O)[C@@H]2C[C@@H](O)CN2C(=O)[C@@H](NC(=O)CCCc2cccc(OC[C@H](CCC(N)=O)NC(=O)[C@@H]3CCCN3C(=O)[C@H](CO)NC(=O)c3cc4cc(C(=O)P(=O)(O)O)ccc4[nH]3)c2Cl)C(C)(C)C)cc1 [I-11] | 10 to 100 nM | –
11 | CC(C)c1ccc(CNC(=O)[C@H](CCC(N)=O)NC(=O)[C@@H]2CC[C@@H]3CCN(C(=O)[C@H]4CC[C@@H](CCc5ccc6c(c5)n(C)c(=O)n6C5CCC(=O)NC5=O)CC4)C[C@H](NC(=O)c4cc5cc(C(F)(F)P(=O)(O)O)ccc5s4)C(=O)N32)cc1 (stereo partly shown) [I-97] | > 1000 nM | –
12 | Cc1ncsc1-c1ccc([C@H](C)NC(=O)[C@@H]2C[C@@H](O)CN2C(=O)[C@@H](NC(=O)CCCc2cccc(OC[C@H](CCC(N)=O)NC(=O)[C@@H]3CCCN3C(=O)[C@H](Cc3c[nH]cn3)NC(=O)c3cc4cc(C(=O)P(=O)(O)O)ccc4[nH]3)c2Cl)C(C)(C)C)cc1 [I-61] | 10 to 100 nM | –
13 | Cn1c(=O)n(C2CCC(=O)NC2=O)c2ccc(C[C@H]3CC[C@@H](CC(=O)N4CC[C@H]5CC[C@@H](C(=O)NC(C)(C)CCC(N)=O)N5C(=O)[C@@H](NC(=O)c5cc6cc(C(=O)P(=O)(O)O)ccc6[nH]5)C4)CC3)cc21 (stereo partly shown) [I-26] | > 1000 nM | –
14 | Cc1ncsc1-c1ccc([C@H](C)NC(=O)[C@@H]2C[C@@H](O)CN2C(=O)[C@@H](NC(=O)CCCc2cccc(OC[C@H](CCC(N)=O)NC(=O)[C@@H]3CCCN3C(=O)[C@@H](NC(=O)c3cc4cc(C(=O)P(=O)(O)O)ccc4[nH]3)C(C)(C)C)c2Cl)C(C)(C)C)cc1 [I-14] | 100 to 1000 nM | –
15 | Cn1c(=O)n(C2CCC(=O)NC2=O)c2ccc(NCCCCCc3cc4c5c(c3)C[C@@H](C(=O)N[C@@H](CCC(N)=O)C(=O)NCc3ccc(S(C)(=O)=O)cc3)N5C(=O)[C@@H](NC(=O)c3cc5cc(C(=O)P(=O)(O)O)ccc5[nH]3)CC4)cc21 (stereo partly drawn) [I-57, 2-[[(2S,11S)-2-[[(1S)-3-carbamoyl-1-[[(4-methanesulfonylphenyl)methyl]carbamoyl]propyl]carbamoyl]-6-(5-[[1-(2,6-dioxopiperidin-3-yl)-3-methyl-2-oxo-1,3-benzodiazol-5-yl]amino]pentyl)-12-oxo-1-azatricyclo[6.4.1.0^[4,13]]trideca-4(13),5,7-trien-11-yl]carbamoyl]-1H-indole-5-carbonylphosphonic acid] | 10 to 100 nM | –
16 | COC(=O)N1CC[C@H]2CC[C@@H](C(=O)N[C@@H](CCC(N)=O)COc3cccc(CCCC(=O)N[C@H](C(=O)N4C[C@H](O)C[C@H]4C(=O)N[C@@H](C)c4ccc(-c5scnc5C)cc4)C(C)(C)C)c3Cl)N2C(=O)[C@@H](NC(=O)c2cc3cc(C(=O)P(=O)(O)O)ccc3[nH]2)C1 [I-87] | > 1000 nM | –
17 | CN1C(=O)CCC(n2c(=O)n(C)c3cc(C[C@H]4CC[C@@H](CC(=O)N5CC[C@H]6CC[C@@H](C(=O)N[C@@H](CCC(N)=O)C(=O)NC(c7ccccc7)c7ccccc7)N6C(=O)[C@@H](NC(=O)c6cc7cc(C(=O)P(=O)(O)O)ccc7[nH]6)C5)CC4)ccc32)C1=O (stereo partly shown) [I-64] | > 1000 nM | –
18 | CC(C)c1ccc(CNC(=O)[C@H](CCC(N)=O)NC(=O)[C@@H]2CC[C@@H]3CCN(C(=O)[C@H]4CC[C@@H](CCc5ccc6c(c5)n(C)c(=O)n6C5CCC(=O)NC5=O)CC4)C[C@H](NC(=O)c4cc5cc(C(=O)P(=O)(O)O)ccc5[nH]4)C(=O)N32)c(Cl)c1 (stereo partly drawn) [I-35, 2-[[(5S,8S,10aR)-8-[[(1S)-3-Carbamoyl-1-[[(2-chloro-4-isopropylphenyl)methyl]carbamoyl]propyl]carbamoyl]-6-oxo-3-[(1r,4s)-4-[2-[1-(2,6-dioxopiperidin-3-yl)-3-methyl-2-oxo-1,3-benzodiazol-5-yl]ethyl]cyclohexanecarbonyl]-octahydropyrrolo[1,2-a][1,5]diazocin-5-yl]carbamoyl]-1H-indole-5-carbonylphosphonic acid] | 10 to 100 nM | –
19 | CC(=O)N1CC[C@H]2CC[C@@H](C(=O)N[C@@H](CCC(N)=O)COc3cccc(CCCC(=O)N[C@H](C(=O)N4C[C@H](O)C[C@H]4C(=O)NC4(c5ccc(-c6scnc6C)cc5)CC4)C(C)(C)C)c3Cl)N2C(=O)[C@@H](NC(=O)c2cc3cc(C(=O)P(=O)(O)O)ccc3[nH]2)C1 [I-72] | 10 to 100 nM | –
20 | CC(=O)N1CC[C@H]2CC[C@@H](C(=O)N[C@@H](CCC(N)=O)COc3cc(C)cc(CCCCCC(=O)N[C@H](C(=O)N4C[C@@H](O)C[C@H]4C(=O)N[C@@H](C)c4ccc(-c5scnc5C)cc4)C(C)(C)C)c3F)N2C[C@@H](NC(=O)c2cc3cc(C(=O)P(=O)(O)O)ccc3[nH]2)C1 [I-23] | > 1000 nM | –
21 | Cc1ncsc1-c1ccc([C@H](C)NC(=O)[C@@H]2C[C@@H](O)CN2C(=O)[C@@H](NC(=O)CCCc2cccc(OC[C@H](CCC(N)=O)NC(=O)[C@@H]3CC[C@@H]4CCCC[C@H](NC(=O)c5cc6cc(C(=O)P(=O)(O)O)ccc6s5)C(=O)N43)c2Cl)C(C)(C)C)cc1 [I-88] | – | > 1000 nM
22 | Cn1c(=O)n(C2CCC(=O)NC2=O)c2ccc(NC[C@H]3CC[C@H](C(=O)N4CC[C@H]5CC[C@@H](C(=O)N[C@@H](CCC(N)=O)C(=O)NCc6ccc(S(C)(=O)=O)cc6)N5C(=O)[C@@H](NC(=O)c5cc6cc(C(=O)P(=O)(O)O)ccc6[nH]5)C4)CC3)cc21 (stereo partly shown) [I-47] | 10 to 100 nM | –
